How the values were obtained:
[1] = Dissolution rate test in deionized water (USP XXIII apparatus, UV 235 nm); type: physicochemical; conditions: for % of active principle passed in solution after 10 minutes: as stated in the text of the Examples; for % by weight of the active principle passed in solution: 30 mg active principle in 1000 ml deionized water, 37°C, 100 rpm
Experimental: The dissolution rate test is carried out in a dissolving equipment according to United States Pharmacopeia 23 by using a volume of deionized water of 1000 ml. The blade stirrer speed is of 100 rpm and the temperature is 37±0.5° C.
In a little glass vessel an exact amount of each sample is weighed so that it contains an amount of the active principle equal to 30 mg, which is directly introduced in the vessel containing the deionized water. At predetermined times, respectively of 5, 10, 15, 30, 45, 50, 60, 90 and 120 minutes from the beginning of the test, the amount of the nitroderivative compound passed in solution is determined, by measuring the concentration w/v (weigh/volume) thereof by UV spectrophotometry at the wave length of 235 nm, using a calibration line. The data are expressed as percentage of nitroderivative compound passed in solution in connection with the time. The amount of the compound of formula (I) passed in solution at the time of 10 minutes is at least about 10 times higher with respect to that of the nitroderivative compound not in amorphous form.
The dissolution rate of 3-(nitroxymethyl)phenyl ester of the acetylsalicylic acid as such and in the preparations containing it according to the examples described hereinafter, has been carried out in a dissolving equipment according to USP (United States Pharmacopeia) XXIII.
The test is carried out by using a volume of deionized water of 1000 ml. The angle rate of the blade stirrer is of 100 rpm and the temperature of 37±0.5° C.
In a little glass vessel an exact amount of each preparation to be tested is weighed so that it contains an amount of the active principle equal to 30 mg, which is directly introduced in the vessel. At predetermined times, respectively of 5, 10, 15, 30, 45, 50, 60, 90 and 120 minutes from the beginning of the test the amount of the compound passed in solution is determined, by measuring the concentration w/v thereof by UV spectrophotometry at the wave length of 235 nm, using a calibration line. The data are expressed as percentage of active principle passed in solution in connection with the time.

[2] = Crystallinity loss (amorphization degree) by DSC; type: physicochemical; conditions: result in words
Experimental: The amorphization degree can be measured by well known methods such as for example DSC, RX, IR, etc. […] The amorphization degree is determined by DSC as variation reduction) of the subtended area of the endothermic melting peak of the active principle. When the amorphization is complete, the melting peak characteristic of the active principle of formula (I) substantially disappears. This means that there is a variation of the enthalpy associated to the melting peak. The specific melting enthalpy ΔH (Joule/g) of the product as such and of the product treated with processes able to decrease the crystallinity (formulation) thereof, is determined by DSC analysis. The percent crystallinity loss is evaluated by the following equation: [formula] The scanning parameters adopted for the DSC analysis are the following: Scanning range: from 30° C. min. to 330° C. max Scanning rate: 10 K/min

CC(=O)Oc1ccccc1C(=O)Oc1cccc(CO[N+](=O)[O-])c1 [Example 1, 3-(nitroxymethyl)phenyl ester of the acetylsalicylic acid]
% of active principle passed in solution after 10 minutes [1]: 0.3%
% by weight of the active principle passed in solution ([1]; time 5 minutes, listed as Ex. 1): 0.1 % by weight
% by weight of the active principle passed in solution ([1]; time 10 minutes, listed as Ex. 1): 0.3 % by weight
% by weight of the active principle passed in solution ([1]; time 15 minutes, listed as Ex. 1): 0.4 % by weight
% by weight of the active principle passed in solution ([1]; time 30 minutes, listed as Ex. 1): 0.8 % by weight
% by weight of the active principle passed in solution ([1]; time 45 minutes, listed as Ex. 1): 1.2 % by weight
% by weight of the active principle passed in solution ([1]; time 60 minutes, listed as Ex. 1): 1.6 % by weight
% by weight of the active principle passed in solution ([1]; time 90 minutes, listed as Ex. 1): 2.4 % by weight
% by weight of the active principle passed in solution ([1]; time 120 minutes, listed as Ex. 1): 3.1 % by weight
crystalline state of the active principle by DSC analysis [2]: completely crystalline

CC(=O)Oc1ccccc1C(=O)Oc1cccc(CO[N+](=O)[O-])c1 [Example 7, 3-(nitroxymethyl)phenyl ester of the acetylsalicylic acid]
% of active principle passed in solution after 10 minutes [1]: 0.5%
% by weight of the active principle passed in solution ([1]; time 0 minutes): 0.0 % by weight
% by weight of the active principle passed in solution ([1]; time 5 minutes): 0.3 % by weight
% by weight of the active principle passed in solution ([1]; time 10 minutes): 0.5 % by weight
% by weight of the active principle passed in solution ([1]; time 15 minutes): 0.8 % by weight
% by weight of the active principle passed in solution ([1]; time 30 minutes): 1.5 % by weight
% by weight of the active principle passed in solution ([1]; time 45 minutes): 2.2 % by weight
% by weight of the active principle passed in solution ([1]; time 60 minutes): 2.7 % by weight
% by weight of the active principle passed in solution ([1]; time 90 minutes): 4.0 % by weight
% by weight of the active principle passed in solution ([1]; time 120 minutes): 5.2 % by weight
crystalline state of the active principle by DSC analysis [2]: completely crystalline form

From patent US6753442B1, “Amorphous nitric esters and their pharmaceutical compositions” (Nicox S.A., priority 1999, dated 2004)
